Measured values published in publication PMC11413853, “Discovery of VU6007496: Challenges in the Development of an M1 Positive Allosteric Modulator Backup Candidate” (ACS Chemical Neuroscience, 2024).

Assays:
[1] = In vivo rat MET ID (plasma)
Protocol: The team was still puzzled by the severe cholinergic adverse events observed in rats at the 100 and 300 mg/kg arms of the dose escalation study, as this was not consistent with the past 20 years of M1 PAM research. Could the N-demethylated metabolite A (24) be responsible? Due to the disconnect between liver S9 and hepatocytes, we felt it was prudent to examine in vivo rat MET ID at doses of 100 and 300 mg/kg to ensure 24 is produced upon in vivo oral dosing after 5–30 min and 160–240 min, and to determine if any other putative metabolites are generated at detectable levels (Figure 10). Across both doses and time points, 73–81% of the parent 11 remained. Metabolite 24 was produced in vivo at 2.2 to 5.6% relative abundance and lower than from in vitro incubations, along with two oxidative metabolites, a dioxygenated species M461 (26) and a mono-oxygenated species M445 (27) on the tetrahydropyranyl moiety. […] A species such as 27 would resemble the hydroxy pyranyl congeners known to be potent ago-PAMs and prone to severe cholinergic side effects, and the potential for 24 to elicit similar cholinergic toxicity was unknown.

[2] = tested on: Bradykinin B2; experiment: Eurofins radioligand binding; design: species or system Human; details: specific binding
[3] = Predicted hepatic clearance, dog; format: in vitro ADME
Protocol: The diluted fraction unbound (fu2) in brain was calculated in the same manner by using brain homogenate rather than plasma. Undiluted fraction unbound for the brain was calculated using […]
Equation 5 Determination of fraction unbound in brain. Fu2 represents the diluted fraction […]
Intrinsic clearance: Human or rat hepatic microsomes (0.5 mg/mL) and 1 µM test compound were incubated in 100 mM potassium phosphate pH 7.4 buffer with 3 mM MgCl2 at 37 °C with constant shaking. After a 5 min preincubation, the reaction was initiated by the addition of NADPH (1 mM). At selected time intervals (0, 3, 7, 15, 25, and 45 min), aliquots were taken and subsequently placed into a 96-well plate containing cold acetonitrile with internal standard (50 ng/mL carbamazepine). Plates were then centrifuged at 3000 rcf (4 °C) for 10 min, and the supernatant was transferred to a separate 96-well plate and diluted 1:1 with water for LC/MS/MS analysis. The in vitro half-life ( 1/2, min, Eq. 1), intrinsic clearance (CLint, mL/min/kg, Eq. 2), and subsequent predicted hepatic clearance (CLhep, mL/min/kg, Eq. 3) was determined employing the […]
Samples were analyzed on a Thermo Electron TSQ Quantum Ultra triple quad mass spectrometer (San Jose, CA) via electrospray ionization (ESI) with two Themo Electron Accella pumps (San Jose, CA), and a Leap Technologies CTC PAL autosampler (Carrboro, NC). […]

[4] = tested on: cardiac ion channels; experiment: Electrophysiology panel of cardiac ion channels (summary); format: cell-based; details: 10 μM; whole panel
Excerpt: In a 4-strain Ames assay, with and without S9, both 11 and 12 were negative.
Table S2. Effects of VU6007496 on Ion Channel Current (Charles River Study 200609.WVN)
Ion Channel Conc Mean % Standard Standard n Individual Data
(μM) Inhibition Deviation Error Points (% Inhibition)

[5] = IV/PO pharmacokinetics, rat; format: in vivo; details: rat (SD), dose iv/po 1/10 mg/kg; for clearance / Vd / half-life: Sprague-Dawley, plasma, 1 mg/kg; for clearance: read-out: CLp; for Vd: read-out: Vss; for half-life: read-out: elimination t1/2 (converted)
Protocol: We next conducted multispecies IV/PO PK in parallel as a potential discerning data set. […] With a strong desire to employ dog as the nonrodent safety species, the challenge to address the low %F in dog was enough to triage PAM 12 and focus on the advancement of 11 (Table 3). […]
Pharmacokinetic profiles in rats following oral single escalating doses Single escalating oral dosing in Sprague-Dawley rats was performed at Frontage Laboratories according to their non-GLP Standard Operating Procedure and IACUC protocols. In short, compounds were formulated in 10% Tween 80 in water and dosed at 10 mg/kg. At different times, arterial blood was collected from a femoral artery catheter, and compound concentration was determined in plasma by LC-MS/MS following their non-GLP protocol. PK parameters were determined using Phoenix WinNonlin software (version 6.3). […]

[6] = tested on: Adrenergic α1D; experiment: Eurofins radioligand binding; design: species or system Human; details: specific binding
[7] = tested on: Glutamate, Kainate; experiment: Eurofins radioligand binding; design: species or system Rat; details: specific binding
[8] = tested on: CYP3A4, CYP1A2, CYP2C9 and CYP2D6; experiment: CYP450 profile (summary over four isoforms); format: in vitro ADME; details: human; summary over the four isoforms; read-out: CYP450 IC50s against CYP3A4, CYP1A2, CYP2C9 and CYP2D6
[9] = tested on: Adenosine A3; experiment: Eurofins radioligand binding; design: species or system Human; details: specific binding

SMILES	Relative Abundance (%) ([1]; 11 dosed 100mg, 5-30 min)	Relative Abundance (%) ([1]; 11 dosed 100mg, 60-240 min)	Relative Abundance (%) ([1]; 11 dosed 300mg, 5-30 min)	Relative Abundance (%) ([1]; 11 dosed 300mg, 160-240 min)	% Inhibition at 10 µM [2] [%]	Predicted CLhep, dog [3] [mL/min/kg]	inhibition of cardiac ion channels [4] [%]	clearance [5] [mL/min/kg]	Vd [5] [L/kg]	half-life [5] [min]	F (%) po [5] [%]	% Inhibition at 10 µM [6] [%]	% Inhibition at 10 µM [7] [%]	IC50 [8] [µM]	% Inhibition at 10 µM [9] [%]
Cn1ccc(-c2ccc(Cc3cc(C(=O)NC4CCOCC4)nc4ccn(C)c34)cc2)n1 [compound 11]	81.0	74.0	79.4	73.1	-3	14	< 17	26	3.2	366	66	-6	-19	> 16	38
Cn1ccc(-c2ccc(Cc3cc(C(=O)NC4CCOCC4)nc4ccsc34)cc2)n1 [compound 12]						16	< 17	33	8.2	318	100			> 16	
Cn1ccc2nc(C(=O)NC3CCOCC3)cc(Cc3ccc(-c4cc[nH]n4)cc3)c21 [compound 24]	2.2	5.6	1.7	3.2											
